Literature values in patent US7998959B2, “Modulators of 11-β hydroxyl steroid dehydrogenase type 1, pharmaceutical compositions thereof, and methods of using the same” (Incyte Corporation, priority 2006, dated 2011).

Tests used:
[1] = tested on: primary hippocampal cells
healthy volunteers = settings: after seven days of treatment
[2] = tested on: pancreatic islet cells of ob/ob mice

## CC1(C)[C@@H](OC(=O)CCC(=O)O)CC[C@]2(C)[C@H]3C(=O)C=C4[C@@H]5C[C@@](C)(C(=O)O)CC[C@]5(C)CC[C@@]4(C)[C@]3(C)CC[C@@H]12 [carbenoxolone]
[1]
  protection from glucocorticoid-mediated exacerbation of excitatory amino acid neurotoxicity: protects the cells from glucocorticoid-mediated exacerbation of excitatory amino acid neurotoxicity
Healthy volunteers
  IOP reduced: 18%
[2]
  glucose-stimulated insulin release: improves glucose-stimulated insulin release
Bone nodule formation
  negative effects of glucocorticoids on bone nodule formation: attenuate the negative effects of glucocorticoids on bone nodule formation
